In US7517949B2, “Livin-derived peptides, compositions and uses thereof” (Hadasit Medical Research Services & Development Ltd., priority 2003, dated 2009):

Legend:
Format in all cases: cell-based, human
LB33 Mel B1 cells = test: Etoposide-induced apoptosis, nuclear morphology, LB33 Mel B1; conditions: Mel B1, high levels of Livin; etoposide 15 μg/ml
Procedure: (§1) (b) Melanoma cell lines LB33 Mel A1 and B1 were treated with etoposide (15 μg/ml). Apoptosis rate was determined by nuclear morphology, as described.
(§2) Nuclear morphology was visualized using acridin orange (Sigma) staining as described [Loo, D. T. et al. (1998) Methods Cell Biol., 57: 251-264]. […] The percentage of apoptotic to viable cells was counted by fluorescence microscopy and 500 cells were scored for each sample. Flow cytometry analysis of the apoptotic cells was done using two different methods. In the Sub-G1 assay the cells were harvested, washed with PBS and fixed using 100% methanol. […] Cells transfected with a GFP-containing plasmid were analyzed using Annexin-V-Cy5 and PI staining according to the manufacturer instructions (MBL, Japan). In stably transfected cultures with a rate of GFP-positive cells higher than 95%, all cells were analyzed for apoptosis. In transiently transfected cells, GFP expression was first analyzed (FL-1), and only GFP-positive cells were analyzed for Annexin-V-Cy5 (FL-4) and PI (FL-3) staining.
(§3) LB33 A1 and B1 are two metastatic melanoma cell lines derived from the same patient before and after vaccination with autologous melanoma cells [Ikeda, H. et al. (1997) Immunity 6: 199-208; Lehmann, F. et al. (1995) Eur. J. Immunol. […] PARP was detected in all samples, confirming similar protein content.

primary melanoma cells = test: Etoposide-induced apoptosis in primary melanoma cultures (nuclear morphology); conditions: etoposide 15 μg/ml, 24 and 48 hours
Procedure: FIG. 8b: Six samples were selected according to the level of Livin expression (high: 5556, 55112, moderate: 5524, 55164, or undetectable: 5530, 5533). […] Apoptosis rate was determined by nuclear morphology, as described. The data shown are representative of three independent experiments, which were also confirmed by flow cytometry, using sub-G1 assay.
Primary melanoma cells were derived and maintained as described [Lotem, M. et al. (2002) Br J Cancer, 86: 1534-1539].
Nuclear morphology was visualized using acridin orange (Sigma) staining as described [Loo, D. T. et al. (1998) Methods Cell Biol., 57: 251-264]. […] The percentage of apoptotic to viable cells was counted by fluorescence microscopy and 500 cells were scored for each sample. Flow cytometry analysis of the apoptotic cells was done using two different methods. In the Sub-G1 assay the cells were harvested, washed with PBS and fixed using 100% methanol. Following an overnight incubation at −20° C., cells were re-hydrated with PBS for 30 minutes on ice, and then resuspended in PBS with RNase A (50 μg/ml) and stained with Propidium Iodide (PI) (Sigma) at a final concentration of 5 μg/ml. Flow cytometry analysis was performed in FL2 histogram. Cells transfected with a GFP-containing plasmid were analyzed using Annexin-V-Cy5 and PI staining according to the manufacturer instructions (MBL, Japan). In stably transfected cultures with a rate of GFP-positive cells higher than 95%, all cells were analyzed for apoptosis. In transiently transfected cells, GFP expression was first analyzed (FL-1), and only GFP-positive cells were analyzed for Annexin-V-Cy5 (FL-4) and PI (FL-3) staining.
In order to determine whether Livin expression renders the melanoma cells resistant to chemotherapy, six melanoma samples were selected, according to their Livin expression. […] After 24 and 48 hours, cells were harvested and the percent of apoptosis determined in each sample by nuclear morphology (FIG. 8b). […]

LB33 Mel A1 cells = test: Etoposide-induced apoptosis, nuclear morphology, LB33 Mel A1; conditions: Mel A1, no Livin expression; etoposide 15 μg/ml
Procedure: as §1, §2, §3

COc1cc([C@@H]2c3cc4c(cc3[C@@H](O[C@@H]3O[C@@H]5CO[C@@H](C)O[C@H]5[C@H](O)[C@H]3O)[C@H]3COC(=O)[C@H]23)OCO4)cc(OC)c1O [etoposide]
response to etoposide (apoptosis by nuclear morphology) (LB33 Mel B1 cells): completely resistant
moderate resistance (percent of apoptosis) (primary melanoma cells; samples 5524 and 55164, intermediate Livin): 15-25%
apoptosis rate (primary melanoma cells; samples 5533 and 5530, no Livin expression): up to 55%
resistance to etoposide (primary melanoma cells; samples 5556 and 55112, high Livin expression): completely resistant
response to etoposide (apoptosis by nuclear morphology) (LB33 Mel A1 cells): rapidly underwent apoptosis
